Measurements taken from US20220153751A1, “BIFUNCTIONAL COMPOUNDS” (BioTheryX, Inc., priority 2018, published 2022).

Tests used:
Format in all cases: cell-based
IKAROS = molecular target: T1, IKAROS (Homo sapiens, UniProt Q13422+Q96SW2); test: IKAROS degradation assay (Western blot, MV-4-11 cells); conditions: MV4-11, 6-8 h
T1 construct: endogenous in cells; host or cells: MV-4-11
Description: (§1) MV-4-11 cells were grown in RPMI 1640 media supplemented with 10% fetal bovine serum, streptomycin and penicillin.
(§2) Cells were cultured at approximately 10^6 cells per mL and incubated in DMSO or the indicated compound for 6-8 h. Whole cell extracts were prepared using RIPA buffer according to manufacturer's protocol (Pierce). Briefly, 3×10^6 cells were washed once in PBS, the cell pellets were resuspended in RIPA buffer and allowed to incubate for 15 minutes on ice. Cells debris was removed by centrifugation and the cleared whole cell lysates were transferred to new tubes for further analysis.
(§3) For Western blot analysis, whole cell protein extracts were separated on 4-12% SDS-polyacrylamide gels, transferred to nitrocellulose and probed with the indicated primary antibodies. Membranes were subsequently washed and probed with the appropriate IRDye secondary antibodies (LI-COR). The signal was detected using the Odyssey Imaging System (LI-COR).
(§4) The following antibodies were used in these studies: Anti-eRF3/GSPT1: Abcam, ab126090 (Cambridge, Mass.); Anti-Ikaros: Abcam, ab191394 (Cambridge, Mass.); Anti-CK1α: Abcam, ab108296 (Cambridge, Mass.); Anti-CDK9: Santa Cruz Biotechnology, sc13130 (Dallas, Tex.); Anti-CDK16: Millipore Sigma, HPA001366 (St. Louis, Mo.); 3-actin (8H10comD10) mouse monoclonal antibody: Cell Signaling Technology, #3700 (Danvers, Mass.); IRDye 680RD Goat anti-rabbit antibody: LI-COR, 926-68071 (Lincoln, Nebr.); IRDye 800CW Goat anti-mouse antibody: LI-COR, 926-32210 (Lincoln, Nebr.).
(§5) CDK9 activities are shown in Table 4 at two different concentrations. CDK16 activities are shown in Table 5 at two different concentrations. In each of Tables 1-5, the % degradation values are reported as “A”, “B”, “C”, or “D”. “A” represents a % degradation value of less than 25% (value <25%). “B” represents a % degradation value of equal to or more than 25% and less than 50% (25%≤value<50%). “C” represents a % degradation value of equal to or more than 50% and less than 75% (50%≤value<75%). “D” represents a % degradation value of equal to or more than 75% (value ≥75%).

GSPT1 = molecular target: T2, GSPT1 (Homo sapiens, UniProt P15170+Q96SW2); test: GSPT1 degradation assay (Western blot, MV-4-11 cells); conditions: MV4-11, 6-8 h
T2 construct: Whole cell extracts were prepared using RIPA buffer; endogenous in cells; host or cells: MV-4-11
Description: as §1, §2, §3, §4, §5

MOLM-13 cells = test: MOLM-13 cell viability assay (CellTiter-Glo); conditions: Homo sapiens, MOLM-13, 72 h, 3 days, read-out: MOLM-13 Cell Viability % DMSO at 1 μM
Description: MOLM-13 cells were cultured in RPMI 1640 media supplemented with 10% fetal bovine serum, streptomycin and penicillin, and were plated in walled 96-well plates at 2500 cells/well. Cells were incubated in DMSO (control) or the indicated compound for 3 days at 37° C. and 5% CO2. Following the incubation period, 100 μL of CellTiterGlow (CTG) reagent (CellTiter-Glo® Luminescent Cell Viability Assay, Promega (Madison, Wis.)) was added to each well. Following a 10 minutes incubation with shaking, luminescence was measured using the EnVision Multimode plate reader.
The MOLM-13 cell viability values as % DMSO are reported as “A”, “B”, “C”, or “D”. “A” represents a % viability value of less than 50% (value <50%). “B” represents a % viability value of equal to or more than 50% and less than 70% (50%≤value<70%). “C” represents a % viability value of equal to or more than 70% and less than 90% (70%≤value<90%). “D” represents a % viability value of equal or more than 90% (value ≥90%).

CDK16 = molecular target: T3, CDK16 (Homo sapiens, UniProt Q00536); test: CDK16 degradation assay (Western blot, MV-4-11 cells); conditions: 6-8 h; for Dmax at 0.1 µM: MV4-11, 0.1 μM; for Dmax at 1 µM: MV4-11, 1 μM
T3 construct: Whole cell extracts were prepared using RIPA buffer; endogenous in cells; host or cells: MV-4-11
Description: as §1, §2, §3, §4, §5

CDK9 = molecular target: T4, CDK9 (Homo sapiens, UniProt P50750); test: CDK9 degradation assay (Western blot, MV-4-11 cells); conditions: 6-8 h; for Dmax at 0.1 µM: MV4-11, 0.1 μM; for Dmax at 1 µM: MV4-11, 1 μM
T4 construct: Whole cell extracts were prepared using RIPA buffer; endogenous in cells; host or cells: MV-4-11
Description: as §1, §2, §3, §4, §5

T1 sequence (Q13422 whole entry): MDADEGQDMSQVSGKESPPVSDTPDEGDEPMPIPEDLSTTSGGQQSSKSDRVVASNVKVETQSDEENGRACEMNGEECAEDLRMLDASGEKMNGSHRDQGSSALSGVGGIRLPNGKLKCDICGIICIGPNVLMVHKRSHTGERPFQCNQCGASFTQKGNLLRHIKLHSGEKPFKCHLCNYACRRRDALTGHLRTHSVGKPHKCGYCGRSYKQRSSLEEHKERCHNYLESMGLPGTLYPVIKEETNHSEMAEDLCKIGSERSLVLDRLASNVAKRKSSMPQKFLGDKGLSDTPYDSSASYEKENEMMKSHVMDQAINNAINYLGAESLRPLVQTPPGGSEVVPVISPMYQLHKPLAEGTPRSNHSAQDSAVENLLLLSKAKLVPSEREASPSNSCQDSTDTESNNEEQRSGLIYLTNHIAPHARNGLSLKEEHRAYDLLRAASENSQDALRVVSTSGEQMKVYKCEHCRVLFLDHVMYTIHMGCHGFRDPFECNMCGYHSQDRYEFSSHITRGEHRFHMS
T1 sequence (Q96SW2 whole entry): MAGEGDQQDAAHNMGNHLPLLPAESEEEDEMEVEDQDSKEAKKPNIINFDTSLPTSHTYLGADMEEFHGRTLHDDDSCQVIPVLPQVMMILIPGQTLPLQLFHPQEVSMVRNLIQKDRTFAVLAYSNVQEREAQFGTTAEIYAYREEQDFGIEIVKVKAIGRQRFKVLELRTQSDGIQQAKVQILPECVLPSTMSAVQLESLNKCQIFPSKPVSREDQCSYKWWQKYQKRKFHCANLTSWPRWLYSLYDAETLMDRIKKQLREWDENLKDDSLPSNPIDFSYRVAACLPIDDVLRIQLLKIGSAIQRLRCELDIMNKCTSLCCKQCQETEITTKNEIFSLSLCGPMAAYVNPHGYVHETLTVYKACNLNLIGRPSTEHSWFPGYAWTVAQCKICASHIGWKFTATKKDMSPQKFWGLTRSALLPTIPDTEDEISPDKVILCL
T1 sequence (Q16531 whole entry partner): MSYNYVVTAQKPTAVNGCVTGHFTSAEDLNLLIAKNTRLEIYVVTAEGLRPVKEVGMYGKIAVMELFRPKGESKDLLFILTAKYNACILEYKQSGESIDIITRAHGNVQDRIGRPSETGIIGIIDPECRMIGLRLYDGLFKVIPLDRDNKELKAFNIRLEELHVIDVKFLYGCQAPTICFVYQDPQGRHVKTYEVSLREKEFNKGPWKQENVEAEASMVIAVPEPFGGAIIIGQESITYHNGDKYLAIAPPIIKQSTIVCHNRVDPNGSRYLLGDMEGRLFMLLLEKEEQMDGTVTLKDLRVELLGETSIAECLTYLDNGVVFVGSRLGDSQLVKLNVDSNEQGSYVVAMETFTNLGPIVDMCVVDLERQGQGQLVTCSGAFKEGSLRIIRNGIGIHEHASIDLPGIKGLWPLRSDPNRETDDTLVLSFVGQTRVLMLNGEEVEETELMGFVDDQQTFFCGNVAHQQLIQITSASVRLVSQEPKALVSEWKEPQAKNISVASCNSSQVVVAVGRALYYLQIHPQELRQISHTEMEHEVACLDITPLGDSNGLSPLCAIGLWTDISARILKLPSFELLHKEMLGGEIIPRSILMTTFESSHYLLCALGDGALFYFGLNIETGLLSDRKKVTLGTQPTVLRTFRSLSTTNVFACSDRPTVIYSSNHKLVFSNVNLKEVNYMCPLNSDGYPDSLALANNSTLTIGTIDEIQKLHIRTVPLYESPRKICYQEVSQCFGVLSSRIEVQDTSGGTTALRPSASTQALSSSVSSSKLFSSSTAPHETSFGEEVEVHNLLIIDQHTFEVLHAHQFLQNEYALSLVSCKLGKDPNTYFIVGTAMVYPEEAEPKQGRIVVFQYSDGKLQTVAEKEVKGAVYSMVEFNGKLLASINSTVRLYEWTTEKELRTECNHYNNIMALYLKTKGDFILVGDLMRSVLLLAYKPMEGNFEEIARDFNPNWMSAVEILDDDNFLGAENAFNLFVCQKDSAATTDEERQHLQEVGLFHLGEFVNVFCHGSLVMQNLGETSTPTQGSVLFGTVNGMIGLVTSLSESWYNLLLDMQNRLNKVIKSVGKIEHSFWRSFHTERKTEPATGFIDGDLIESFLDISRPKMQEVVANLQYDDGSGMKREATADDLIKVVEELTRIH
T2 sequence (P15170 whole entry): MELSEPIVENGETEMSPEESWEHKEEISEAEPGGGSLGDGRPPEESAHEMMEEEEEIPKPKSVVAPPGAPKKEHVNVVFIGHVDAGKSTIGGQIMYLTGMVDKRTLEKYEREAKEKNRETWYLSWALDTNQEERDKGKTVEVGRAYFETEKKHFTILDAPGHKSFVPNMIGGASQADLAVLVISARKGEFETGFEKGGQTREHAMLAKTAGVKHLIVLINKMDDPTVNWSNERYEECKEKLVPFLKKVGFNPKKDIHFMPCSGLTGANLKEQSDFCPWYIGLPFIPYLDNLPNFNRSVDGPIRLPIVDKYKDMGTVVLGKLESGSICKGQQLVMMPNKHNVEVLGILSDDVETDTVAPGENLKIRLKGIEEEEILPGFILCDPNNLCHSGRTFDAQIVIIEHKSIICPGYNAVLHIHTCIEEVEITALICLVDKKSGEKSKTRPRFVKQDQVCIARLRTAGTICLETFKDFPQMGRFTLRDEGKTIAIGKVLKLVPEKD
T2 sequence (Q96SW2 whole entry): as the sequence (Q96SW2 whole entry) above
T2 sequence (Q16531 whole entry partner): as the sequence (Q16531 whole entry partner) above
T3 sequence (Q00536 whole entry): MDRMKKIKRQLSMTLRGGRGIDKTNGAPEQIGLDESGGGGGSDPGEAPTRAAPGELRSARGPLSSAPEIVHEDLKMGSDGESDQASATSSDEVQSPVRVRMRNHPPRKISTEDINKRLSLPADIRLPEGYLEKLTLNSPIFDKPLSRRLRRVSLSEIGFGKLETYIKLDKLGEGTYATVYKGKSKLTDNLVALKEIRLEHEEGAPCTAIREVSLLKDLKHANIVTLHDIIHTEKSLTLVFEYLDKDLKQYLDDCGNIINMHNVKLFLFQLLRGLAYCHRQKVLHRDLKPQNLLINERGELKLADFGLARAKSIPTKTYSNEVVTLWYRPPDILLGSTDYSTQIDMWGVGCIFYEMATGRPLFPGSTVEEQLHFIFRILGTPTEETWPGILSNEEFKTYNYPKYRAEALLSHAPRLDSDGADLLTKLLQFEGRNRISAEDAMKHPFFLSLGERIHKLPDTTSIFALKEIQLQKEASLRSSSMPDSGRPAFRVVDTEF
T4 sequence (P50750 whole entry): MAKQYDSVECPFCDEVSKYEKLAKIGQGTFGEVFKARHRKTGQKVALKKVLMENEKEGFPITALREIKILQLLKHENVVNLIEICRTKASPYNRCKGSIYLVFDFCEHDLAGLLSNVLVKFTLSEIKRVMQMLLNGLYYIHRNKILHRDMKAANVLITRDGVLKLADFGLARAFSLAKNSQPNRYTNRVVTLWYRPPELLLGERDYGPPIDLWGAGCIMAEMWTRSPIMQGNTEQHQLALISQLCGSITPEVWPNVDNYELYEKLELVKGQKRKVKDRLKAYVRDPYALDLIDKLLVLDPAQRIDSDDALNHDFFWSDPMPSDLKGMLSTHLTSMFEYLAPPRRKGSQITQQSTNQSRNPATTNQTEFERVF

| Structure (SMILES) | Dmax at 1 µM (IKAROS) [%] | Dmax at 1 µM (GSPT1) [%] | Dmax at 0.1 µM (CDK16) [%] | Dmax at 1 µM (CDK16) [%] | Dmax at 0.1 µM (CDK9) [%] | Dmax at 1 µM (CDK9) [%] | viability at 1 µM (MOLM-13 cells) [%] |
| --- | --- | --- | --- | --- | --- | --- | --- |
| Cn1ncc(-c2nc(N[C@H]3CC[C@H](NCCCCCCCNCc4ccc(OCc5scc6c5CN([C@H]5CCC(=O)NC5=O)C6=O)cc4)CC3)ncc2Cl)c1CC1CC1 [Compound 68, (S)-3-(1-((4-(((7-(((1r,4r)-4-((5-chloro-4-(5-(cyclopropylmethyl)-1-methyl-1H-pyrazol-4-yl)pyrimidin-2-yl)amino)cyclohexyl)amino)heptyl)amino)methyl)phenoxy)methyl)-4-oxo-4H-thieno[3,4-c]pyrrol-5(6H)-yl)piperidine-2,6-dione] | ≥ 75 | ≥ 75 | – | – | – | – | > 90 |
| CC(C)(C)c1cnc(CSc2cnc(NC(=O)C3CCN(CC(=O)NCCCCNCC(=O)NCc4cc5c(s4)C(=O)N(C4CCC(=O)NC4=O)C5)CC3)s2)o1 (stereo not drawn) [Compound 14, N-(5-(((5-(tert-butyl)oxazol-2-yl)methyl)thio)thiazol-2-yl)-1-(2-((4-((2-(((5-(2,6-dioxopiperidin-3-yl)-6-oxo-5,6-dihydro-4H-thieno[2,3-c]pyrrol-2-yl)methyl)amino)-2-oxoethyl)amino)butyl)amino)-2-oxoethyl)piperidine-4-carboxamide] | < 25 | 25 to 50 | < 25 | 25 to 50 | 25 to 50 | ≥ 75 | > 90 |
| Cn1ncc(-c2nc(N[C@H]3CC[C@H](NCC(=O)NCCCCNCC(=O)NCc4cc5c(s4)C(=O)N(C4CCC(=O)NC4=O)C5)CC3)ncc2F)c1CC1CC1 (stereo partly drawn) [Compound 29, 2-(((1r,4r)-4-((4-(5-(cyclopropylmethyl)-1-methyl-1H-pyrazol-4-yl)-5-fluoropyrimidin-2-yl)amino)cyclohexyl)amino)-N-(4-((2-(((5-(2,6-dioxopiperidin-3-yl)-6-oxo-5,6-dihydro-4H-thieno[2,3-c]pyrrol-2-yl)methyl)amino)-2-oxoethyl)amino)butyl)acetamide] | 50 to 75 | < 25 | 25 to 50 | 50 to 75 | 25 to 50 | 50 to 75 | > 90 |

Second part, led by results:

| Dmax at 1 µM (IKAROS) [%] | Dmax at 1 µM (GSPT1) [%] | Dmax at 0.1 µM (CDK16) [%] | Dmax at 1 µM (CDK16) [%] | Dmax at 0.1 µM (CDK9) [%] | Dmax at 1 µM (CDK9) [%] | Structure (SMILES) | viability at 1 µM (MOLM-13 cells) [%] |
| --- | --- | --- | --- | --- | --- | --- | --- |
| 25 to 50 | 50 to 75 | 50 to 75 | ≥ 75 | 50 to 75 | ≥ 75 | Cn1ncc(-c2nc(N[C@H]3CC[C@H](NCC(=O)NCCCCNCC(=O)NCc4scc5c4CN(C4CCC(=O)NC4=O)C5=O)CC3)ncc2Cl)c1CC1CC1 (stereo partly drawn) [Compound 38, 2-(((1r,4r)-4-((5-chloro-4-(5-(cyclopropylmethyl)-1-methyl-1H-pyrazol-4-yl)pyrimidin-2-yl)amino)cyclohexyl)amino)-N-(4-((2-(((5-(2,6-dioxopiperidin-3-yl)-4-oxo-5,6-dihydro-4H-thieno[3,4-c]pyrrol-1-yl)methyl)amino)-2-oxoethyl)amino)butyl)acetamide] | > 90 |
| 50 to 75 | < 25 | – | – | – | – | Cn1ncc(-c2nc(N[C@H]3CC[C@H](NCC(=O)NCCOCCOCCOCCNc4cccc5c4C(=O)N(C4CCC(=O)NC4=O)C5=O)CC3)ncc2Cl)c1CC1CC1 (stereo partly drawn) [Compound 49, 2-(((1r,4r)-4-((5-chloro-4-(5-(cyclopropylmethyl)-1-methyl-1H-pyrazol-4-yl)pyrimidin-2-yl)amino)cyclohexyl)amino)-N-(2-(2-(2-(2-((2-(2,6-dioxopiperidin-3-yl)-1,3-dioxoisoindolin-4-yl)amino)ethoxy)ethoxy)ethoxy)ethyl)acetamide] | > 90 |
